The subject of the assay is Drosophilae containing and expressing human Abeta42 gene. Put plainly: Pavlov's olfactory-related instantaneous memory test in Drosophila. The settings on record: FIG. 3; with increase of dosage; compared with positive compound memantine hydrochloride. It is filed as in vivo.

For `O=C1C=C(OCc2ccc(F)cc2)[C@H](Cc2ccccc2)N1` [Compound 50561], the “dose-effect relationship to improve memory of drosophilae” value is listed as “eventually reaches or exceeds the level of the activity of the positive compound memantine hydrochloride”.

The record behind these values is patent US11130733B2, “4-OXO-alkylated tetramic acid compound, preparation method and use thereof” (BEIJING JOEKAI BIOTECH. LLC, priority 2017, dated 2021).
